This series can be described thus: in vivo. To be noted: male, Labrador, dog, iv, 25 mg. The protocol: First, four male dogs (H1-H4) (Labrador, approx. 1 year of age and weight 30 kg) were given 2-hydroxy-flutamide (25 mg) by single bolus doses intravenously during 30 seconds. The intravenous solution base was sterile saline […], sterile polyethylene glycol 400 46% and ethanol (95%) 6%. Blood samples of 1.0 ml were taken from the Cephalic vein at 5, 10, 15, 30, 60, 90, 120, 240, 360, and 600 minutes. The blood samples were immediately centrifuged at 3000 rpm and the plasma samples were frozen at −80° C. until analysis.
Quantification of 2-hydroxy-flutamide in plasma and tissue samples was done by HPLC-MS. HPLC was performed with a Surveyor HPLC system equipped with a CTC Pal autosampler. The analytical column was a Zorbax Eclipse XDB-18 (2.1 mm×50 mm, particle size 5 μm) connected to a guard column. The eluent consisted of solvent A (aqueous formic acid 0.1%) and B (acetonitrile), a linear gradient from 25 to 90% of solvent B in 5 minutes was applied. The proportion of solvent B was then lowered to 25% in one minute and was allowed to equilibrate at this level for two minutes prior to the next injection. The volumetric flow-rate was 200 μL/min and the injection volume was 20 μL. The HPLC column outlet was coupled to a TSQ Quantum Ultra tandem triple quadrupole mass spectrometer (ThermoFinnigan, San José, Calif., USA). The transition of m/z 291 [M-H]^−→205 was used for 2-hydroxy-flutamide and m/z 316 [M-H]^−→273 was used for nilutamide (internal standard). The limit of quantification was 0.50 ng/ml in dog plasma. Calibration samples were prepared by spiking blank plasma samples with 100 μL of solutions of 2-hydroxy-flutamide at different concentrations. […] The accuracies of the analytical runs were calculated as 100*(mean determined concentration in QC sample/spiked concentration) % and the intra-run precisions were calculated as the relative standard deviation (RSD %) of the determined concentrations at each QC level. […]

Compound `CC(C)(O)C(=O)Nc1ccc([N+](=O)[O-])c(C(F)(F)F)c1` [2-hydroxy-flutamide] displayed a maximum concentration (Cmax) (Cmax) of 835 ng/mL. In addition, the half-life reads like this: (elimination half-life) 1.75 ± 0.2 h; (t1/2) 1.9 h.

As a reminder, the Cmax is the peak of the concentration-time curve. Broadly, the half-life is the time in which the quantity being followed falls by half. Read a low half-life as fast loss.

(Values after US8936809B2, “Method for treating prostate diseases based on local delivery of active substances” (Lidds AB, priority 2005, dated 2015).)
